# Data as given in US10744127B2, “MDR-reversing 8-hydroxy-quinoline derivatives” (MAGYAR TUDOMÁNYOS AKADÉMIA TERMÉSZETTUDOMÁNYI KUTATÓKÖZPONT, priority 2016, dated 2020).
# Like-named read-outs stand apart in the source and are kept apart here.
# Columns and labels:
# [1] = test system: A431 and A431-B1 cell lines; experiment: Selective toxicity in A431 and A431-B1 cell lines; type: cell-based, human; details: A431 versus P-gp-transfected A431-B1
# Description: (§1) Cell survival was measured by the PrestoBlue® Cell Viability Reagent (Life Technologies, USA). Cells were seeded in 100 μl medium at a density of 5000 cells/well in 96-well plates; the serially diluted drug was added the following day. Cells were then incubated for 72 hours at 37° C. in 5% CO2; the drug containing medium was removed, and the PrestoBlue® reagent was added according to the manufacturer's instructions. Fluorescence of the cells was measured by a Perkin Elmer EnSpire multimode plate reader or Perkin Elmer Victor X3 microplate reader. Data were background corrected and normalized to untreated cells. Curves were fitted with the help of Prism software using the sigmoidal dose-response model. Curve fit statistics were used to determine IC50 values. Differences between the IC50 values of the respective cell lines were analyzed by two-sided […] unpaired Student's t test and results were considered statistically significant at a P value of <0.05 (*) or 0.01 (**).
# (§2) Data on selective toxicity (expressed as Selectivity Ratio, SR) in two MDR models engineered by retroviral transfection of P-glycoprotein (A431/A431-B1 and MDCK II/MDCK II B1 cell lines) are presented in Table 3 and Table 4.
# (§3) A431 is a human epidermoid carcinoma cell line. Its derivative, the A431-B1 cell line expresses P-gp due to retroviral transfection of the mdr1 gene Türk, D. et al (Türk, D. et al., 2009). MDCK II is a canine kidney cell line. MDCK II B1 was created by inserting the mdr1 gene with transposons [Pape V F S et al. 2015] Both cell express P-gp stably, and show a stable MDR phenotype. Culture conditions were identical as in the case of MES-SA cells.
# MES-SA/Dx5 cells = experiment: Sensitivity of MES-SA/Dx5 cells to doxorubicin after a single treatment; type: cell-based, human; details: after treatment with a single dose (FIG. 3)
# Text: The above treatment with compounds of the general Formula I results in a new, stable phenotype, with the complete resensitization of cells to conventional chemotherapy consisting of P-glycoprotein substrates such as doxorubicin (FIG. 3).
# Curves show the sensitivity of MES-SA/Dx5 cells (P-gp overexpressing cell line established from MES-SA) to doxorubicin before and after treatment with a single dose of a state of the art compound (NSC693872) and two compounds relating to this invention (Example compounds No. 9 and No. 17). The sensitivity of MES-SA cells is shown as a reference (P-gp-negative parental cell line). […] (Values indicate the IC50 values (μM) derived from the cytotoxicity curves).
# [2] = test system: MDCK II and MDCK II B1 cell lines; experiment: Selective toxicity towards MDCK II and MDCK II B1 cell lines; type: cell-based, canine; details: MDCK II versus MDCK II B1
# Description: as §1, §2, §3
# [3] = test system: P-gp-expressing MES-SA/Dx5 cells; experiment: P-gp switch assay (Calcein AM); type: cell-based, human; details: for Fraction of P-gp-negative cells (P3) in the population / Fraction of P-gp-positive cells (P4) in the population: MES-SA/Dx5, single dose at IC20 (killing 80% of the cells), surviving population at 80% confluence, Calcein AM; for Loss of P-gp expression in MES-SA/Dx5 cells: single treatment (FIG. 1, Table 6)
# Description: One million P-gp-expressing MES-SA/Dx5 cells were plated in a T25 cell culture flask. After 24 hours the compound of interest was added directly to the cells at a concentration corresponding to the IC20 value (killing 80% of the cells). After 5 days the culture media was removed, the cells were washed with PBS and the culture medium was exchanged. Cells were monitored daily and the recovery was recorded. The medium was changed every 5 days until the confluence of the cells reached 80%. At 80% confluence the cells were removed by gentle trypsinization, counted by an automated cell counter and stained with Calcein AM, a cellular dye able to detect the function of P-gp (Homolya 1993). P-gp-positivity was evaluated based on the ability of P-gp-expressing cells to extrude Calcein AM.
# [4] = test system: MES-SA and MES-SA/Dx5 cells; experiment: Selective toxicity in the presence of the P-gp inhibitor tariquidar; type: cell-based, human; details: for SR (TQ): selectivity ratio in the presence of tariquidar (1 μM); for Selective toxicity in the presence of P-gp inhibitors: tariquidar
# Description: In the presence of tariquidar (an inhibitor of P-gp function), the toxicity of the compounds selectively diminishes in multidrug-resistant MES-SA/Dx5 cells, while the toxicity is unchanged against parental MESSA cells, which is reflected by a decrease in the selectivity ratio (SR (TQ)).
# To investigate the contribution of P-glycoprotein to the cytotoxic effect of a compound, cell survival was measured in the presence of the P-glycoprotein inhibitor tariquidar (1 μM). Tariquidar (CAS 206873-63-4) can be obtained e.g. from Selleck, Houston, USA.
# MES-SA cell line = experiment: Cytotoxicity, PrestoBlue cell viability assay, parental MES-SA; type: cell-based; details: Homo sapiens; parental MES-SA cell line (Table 2a)
# Description: (§4) The human uterine sarcoma cell line MES-SA and its doxorubicin resistant counterpart MES-SA/Dx5 were obtained from ATCC (MES-SA: No. CRL-1976™, MES-SA-Dx5: No. CRL-1977™). MES-SA/Dx5 cells express high levels of P-gp, and therefore are multidrug resistant (MDR). Cells were cultured in DMEM supplemented with 10% FBS, 5 mmol/L glutamine and 50 unit/mL penicillin and streptomycin (Life Technologies).
# as §1
# [5] = test system: MES-SA and multidrug-resistant MES-SA/Dx5 cell line; experiment: Selective toxicity (ratio of IC50 in MES-SA to IC50 in MES-SA/Dx5) and activity index; type: cell-based, human
# Text: Compounds having P-gp potentiated MDR-selective activity can be characterized by their inhibitory concentration (IC) with regard to a specific cancer cell line. Usually the IC value is given at a certain percentage ratio of non-inhibited molecules or surviving cells. For example an IC20 value of a compound on a cell line means that at this inhibitory concentration of the compound 80% of the cells are killed whereas 20% of the cells are still viable. A further characteristic of MDR-selective drugs is the selectivity ratio (SR), which is the ratio of the IC value measured in a non-multidrug resistant cell line to (i.e. divided by) the IC value measured in the corresponding transformed, multidrug-resistant cell line. The inverse value, the resistance ratio (RR) is calculated as the ratio of a compound's IC value against a multidrug resistant cell line divided by the parallel IC value of the same compound against a control non-multidrug resistant cell line. The Activity Index (AI) is calculated here as the ratio of the compound's selectivity ratio (SR) and the compound's IC50 value against the resistant cell. The AI reflects the level of simultaneous toxicity and selectivity towards multidrug-resistant cancer cells.
# as §4, §1
# Selectivity towards multidrug-resistant cells is expressed as the ratio of the IC50 value measured in the parental MES-SA and multidrug-resistant MES-SA/Dx5 cell line (Selectivity Ratio, SR).
# A novel characteristic of the compounds presented in this invention is that they exert their selective cytotoxicity at low IC50 values. Simultaneous toxicity and selectivity towards multidrug-resistant cancer cells is reflected by the Activity Index (AI) of the compounds, which is the ratio of the selectivity ratio (SR) and the IC50 value on the resistant cell line.
# MES-SA/Dx5 cell line = experiment: Cytotoxicity, PrestoBlue cell viability assay, MES-SA/Dx5; type: cell-based; details: Homo sapiens
# Description: as §4, §1
# [6] = WO2010138686 and Türk et al. 2009; cited from earlier work
# [7] = test system: ABCB1-overexpressing and parental HEK293 cells; details: cited from earlier work
# [8] = MES-SA / MES-SA/Dx5, without tariquidar (Table 5)
# [9] = multidrug-resistant MES-SA/Dx5 cell line (Table 2a), read-out: IC50 (nM) in MES-SA/Dx5 cell line
# [10] = MES-SA/Dx5 (Table 2b), read-out: IC50 (μM) Dx5
# [11] = Mes-sa/Dx5 cell line, PrestoBlue assay, 72 hours (Table 1), read-out: IC50
SMILES,Selectivity Ratio (SR) (A431/A431-B1) [1],Resensitization of MES-SA/Dx5 cells to doxorubicin (MES-SA/Dx5 cells),Selectivity Ratio (SR) (MDCK II/MDCK II B1) [2],Fraction of P-gp-negative cells (P3) in the population [3] [%],Fraction of P-gp-positive cells (P4) in the population [3] [%],SR (TQ) [4],IC50 (MES-SA cell line) [nM],"SR [5, 8]",IC50 (MES-SA/Dx5 cell line; [9]) [nM],melting point [°C],SR ([5]; MES-SA / MES-SA/Dx5 (Table 2b)),IC50 (MES-SA/Dx5 cell line; [10]) [nM],IC50 (MES-SA/Dx5 cell line; [11]) [nM],selectivity [6],Loss of P-gp expression in MES-SA/Dx5 cells [3],Selective toxicity in the presence of P-gp inhibitors [4],selectivity [7]
"Oc1c(C2NCCc3sccc32)cc(Cl)c2cccnc12 (stereo not drawn) [Example 17, 5-Chloro-7-(4,5,6,7-tetrahydrothieno[3,2-c]pyridin-4-yl)quinolin-8-ol]",12.6,sufficient to resensitize MES-SA/Dx5 cells to doxorubicin,,,,,,,,,,,,,,,
"C/C(=N\Nc1ccc2ccc(CN3CCCCC3)c(O)c2n1)c1ccccn1 [Example 3, (E/Z)-7-(Piperidin-1ylmethyl)-2-(2-(1-(pyridin-2-yl)ethylidene)hydrazinyl)quinolin-8-ol]",14.4,,9.5,88.6,11.40,1.5,11300,16.2,727,69 to 71,,,,,,,
"COc1ccc(CNCc2cc(Br)c3cccnc3c2O)cc1OC [Example 25, 5-Bromo-7-(((3,4-dimethoxybenzyl)amino)methyl)quinolin-8-ol]",,,9.4,92.30,7.70,1.6,2910,22.3,131,133 to 136,22.3,130,131,,,,
"CCN(CC)Cc1ccc2cccnc2c1O [NSC693872, 7-(N,N-diethylaminomethyl)quinolin-8-ol, reference compound]",1.9,not sufficient to influence the resistance of the cells to doxorubicin,3.1,7.8,92.2,2.6,7810,4.9,1580,,4.9,1580,1580,~3.90,insignificant loss,retain a partial selective toxicity,
"COc1ccc(CNCc2cc([N+](=O)[O-])c3cccnc3c2O)cc1 [Example 27, 7-(((4-Methoxybenzyl)amino)methyl)-5-nitroquinolin-8-ol]",12.6,,8.0,,,1.6,6090,19.9,310,191 to 193,19.9,310,,,,,
"COc1ccc(CNCc2cc(Cl)c3cccnc3c2O)c(OC)c1 [Example 26, 5-Chloro-7-(((2,4-dimethoxybenzyl)amino)methyl)quinolin-8-ol]",11.2,,8.0,,,1.7,2260,17.6,130,136 to 139,17.6,130,133,,,,
"Cl.Oc1c(CN2CCCC2)ccc2cccnc12 [NSC693871, 7-(pyrrolidin-1-ylmethyl)quinolin-8-ol hydrochloride, reference compound]",3.8,,4.4,9.1,90.9,1.4,6250,4.2,1470,,4.2,1470,1470,about 8.48,insignificant loss,retain a partial selective toxicity,~10
"COc1ccc(CNCc2cc([N+](=O)[O-])c3cccnc3c2O)cc1OC [Example 30, 7-(((3,4-Dimethoxybenzyl)amino)methyl)-5-nitroquinolin-8-ol]",11.5,,16.1,,,1.3,23800,19.3,1220,204 to 206,,,,,,,
